Values joined by “and” are separate entries in the source; they are usually repeats but may differ in a detail not shown here. Equal entries are not always repeated. Where two headings read alike, the source gives them in different places.
Columns and labels:
CDK12–cyclin K and DDB1 = target: T1, CDK12–cyclin K and DDB1 (Homo sapiens, UniProt Q16531+Q9NYV4, K965R); assay: TR-FRET ternary complex formation assay (compound titration); assay type: binding; conditions: for TR-FRET signal at compound concentration: replicate titrations
T1 construct: His6–CDK12 (a.a. 713–1,052); full-length or beta-propeller B domain deletion (ΔBPB: a.a. 396–705 deleted) constructs of His6–DDB1ΔBPB, StrepII–Avi–DDB1, or His6–Spy–DDB1; made in house; host or cells: Trichoplusia ni High Five insect cells (baculovirus)
T1 sequence (Q9NYV4 713-1052 K965R): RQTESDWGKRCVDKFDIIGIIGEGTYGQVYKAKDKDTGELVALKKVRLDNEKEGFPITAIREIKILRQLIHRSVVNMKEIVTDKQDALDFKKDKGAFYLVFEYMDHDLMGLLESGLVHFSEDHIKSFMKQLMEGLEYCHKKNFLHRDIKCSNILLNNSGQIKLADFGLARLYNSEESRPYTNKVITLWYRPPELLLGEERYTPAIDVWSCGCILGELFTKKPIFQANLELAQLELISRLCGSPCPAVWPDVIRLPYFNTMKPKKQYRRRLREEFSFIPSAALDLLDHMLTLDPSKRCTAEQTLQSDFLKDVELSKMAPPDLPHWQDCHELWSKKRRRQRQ
T1 sequence (O75909 1-267 partner): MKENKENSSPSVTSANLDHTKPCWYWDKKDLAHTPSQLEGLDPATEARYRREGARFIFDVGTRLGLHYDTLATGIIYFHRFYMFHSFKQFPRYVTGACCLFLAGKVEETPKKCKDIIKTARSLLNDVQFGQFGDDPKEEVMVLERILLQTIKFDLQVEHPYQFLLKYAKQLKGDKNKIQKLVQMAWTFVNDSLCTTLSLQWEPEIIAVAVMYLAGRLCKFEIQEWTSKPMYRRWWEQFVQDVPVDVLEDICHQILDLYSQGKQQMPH
T1 sequence (Q16531 whole entry): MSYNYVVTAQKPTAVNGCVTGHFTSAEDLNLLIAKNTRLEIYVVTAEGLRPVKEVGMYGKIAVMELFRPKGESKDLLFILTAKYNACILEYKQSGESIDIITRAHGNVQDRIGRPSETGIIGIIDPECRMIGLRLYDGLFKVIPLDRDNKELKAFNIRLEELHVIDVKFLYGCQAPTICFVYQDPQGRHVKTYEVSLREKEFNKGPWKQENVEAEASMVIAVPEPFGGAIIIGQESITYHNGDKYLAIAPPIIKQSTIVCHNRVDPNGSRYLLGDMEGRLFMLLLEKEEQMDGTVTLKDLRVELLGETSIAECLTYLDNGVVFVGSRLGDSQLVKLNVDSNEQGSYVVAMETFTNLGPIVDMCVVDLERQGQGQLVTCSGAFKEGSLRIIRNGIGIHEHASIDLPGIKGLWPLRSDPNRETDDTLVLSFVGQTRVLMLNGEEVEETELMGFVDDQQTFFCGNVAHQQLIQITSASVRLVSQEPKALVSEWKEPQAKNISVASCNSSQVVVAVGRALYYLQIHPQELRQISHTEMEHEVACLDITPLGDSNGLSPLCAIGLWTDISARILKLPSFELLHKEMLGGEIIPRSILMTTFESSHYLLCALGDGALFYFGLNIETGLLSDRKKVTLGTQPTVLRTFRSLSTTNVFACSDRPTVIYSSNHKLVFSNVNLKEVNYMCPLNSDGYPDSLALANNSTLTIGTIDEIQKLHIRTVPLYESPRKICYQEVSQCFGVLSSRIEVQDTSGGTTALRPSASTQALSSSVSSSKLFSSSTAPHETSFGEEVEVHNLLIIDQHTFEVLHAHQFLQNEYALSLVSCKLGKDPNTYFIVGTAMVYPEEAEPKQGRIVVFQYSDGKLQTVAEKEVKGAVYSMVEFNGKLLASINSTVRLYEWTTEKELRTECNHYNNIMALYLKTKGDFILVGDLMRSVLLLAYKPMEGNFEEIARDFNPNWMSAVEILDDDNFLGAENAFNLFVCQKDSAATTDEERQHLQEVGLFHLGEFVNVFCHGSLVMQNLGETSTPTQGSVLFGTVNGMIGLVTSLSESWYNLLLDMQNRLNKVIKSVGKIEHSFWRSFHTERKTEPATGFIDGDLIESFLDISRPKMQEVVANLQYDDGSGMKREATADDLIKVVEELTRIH
From the text: A 70 μs delay was employed to reduce background fluorescence. The TR-FRET signal was obtained through calculating the ratio of 520 nm to 490 nm fluorescence, and Prism 9 (GraphPad) was used for further data analysis.

[1] = test system: cyclin K–eGFP degradation reporter; assay: Cyclin K reporter stability analysis (dual-color cyclin K–eGFP reporter); assay type: cell-based, human; conditions: Supplementary Table 2; HEK293T cycK-eGFP reporter, 5 h; read-out: Cellular assays DC50
Experimental: HEK293T–Cas9 cells expressing the cyclin K–eGFP degradation reporter were resuspended at 1 × 10^6 ml^−1 and 50 µl of cell suspension was seeded in non-cell-culture-treated 384-well plates. Shortly after, cells were treated with drug or DMSO for 5 h. […] The fluorescent signal was quantified by flow cytometry (LSRFortessa flow cytometer, BD Biosciences). Using FlowJo (flow cytometry analysis software, BD Biosciences), the geometric mean of the eGFP and mCherry fluorescent signal for round and mCherry-positive cells was calculated. The ratio of eGFP to mCherry was normalized to the average of three DMSO-treated controls.

HEK293T cells = assay: Drug sensitivity assay (CellTiter-Glo viability) with or without MLN4924 pretreatment; assay type: cell-based, human; conditions: Supplementary Table 2; for EC50: Homo sapiens, HEK-293T, HEK293T viability, 72 h, compound alone, read-out: Cellular assays EC50; for Toxicity rescue: MLN4924-mediated cytotoxicity rescue, 10 µM used where n.d.
Experimental: HEK293T–Cas9 cells were resuspended at 0.15 × 10^6 ml^−1 treated with DMSO or 100 nM MLN4924 and plated on 384-well plates. After 2 h, the indicated drugs were dispensed with a D300 digital dispenser (Tecan). After 3 days of drug exposure, cell viability was assessed using the CellTiter-Glo luminescent assay (Promega, G7572) on an CLARIOstar Plus, MARS 3.4 (BMG LabTech). Cell viabilities were calculated relative to DMSO controls.

[2] = compound concentration 79.2001 nM
[3] = compound concentration 158.4 nM
[4] = compound concentration 309.6 nM
[5] = compound concentration 626.401 nM
[6] = compound concentration 1252.8 nM
[7] = compound concentration 9936.01 nM
[8] = compound concentration 20016 nM
[9] = in vitro complex formation, 50 nM CDK12–cyclin K, 100 nM DDB1, text and figures, read-out: TR-FRET EC50
[10] = sheet MOESM7, read-out: log TR-FRET EC50 (converted)

Structure (SMILES): CC[C@H](CO)Nc1nc(NCc2ccc(-c3ccc4ccccc4c3)cc2)c2ncn(C(C)C)c2n1 [DS05]
- EC50 (CDK12–cyclin K and DDB1; Supplementary Table 2, read-out: TR-FRET EC50 TR-FRET): 935 nM
- TR-FRET signal at compound concentration (CDK12–cyclin K and DDB1; compound concentration 4.68 nM): 0.139 and 0.157
- TR-FRET signal at compound concentration (CDK12–cyclin K and DDB1; compound concentration 21.6 nM): 0.1423 and 0.1615
- TR-FRET signal at compound concentration (CDK12–cyclin K and DDB1; compound concentration 36 nM): 0.1531 and 0.1764
- TR-FRET signal at compound concentration (CDK12–cyclin K and DDB1; [2]): 0.1718 and 0.1914
- TR-FRET signal at compound concentration (CDK12–cyclin K and DDB1; [3]): 0.1925 and 0.2133
- TR-FRET signal at compound concentration (CDK12–cyclin K and DDB1; [4]): 0.2424 and 0.278
- TR-FRET signal at compound concentration (CDK12–cyclin K and DDB1; [5]): 0.3125 and 0.3604
- TR-FRET signal at compound concentration (CDK12–cyclin K and DDB1; [6]): 0.4172 and 0.4741
- TR-FRET signal at compound concentration (CDK12–cyclin K and DDB1; compound concentration 2448 nM): 0.5249 and 0.5984
- TR-FRET signal at compound concentration (CDK12–cyclin K and DDB1; [7]): 0.656 and 0.7191
- TR-FRET signal at compound concentration (CDK12–cyclin K and DDB1; [8]): 0.5857 and 0.628
- EC50 (CDK12–cyclin K and DDB1; [9]): 936 ± 112 nM
- EC50 (CDK12–cyclin K and DDB1; [10]): 935 nM
- DC50 [1]: > 10000 nM
- EC50 (HEK293T cells): > 10000 nM
- Toxicity rescue (HEK293T cells): 0%

Structure (SMILES): CCCCCCCCNc1nc(N[C@H](CC)CO)nc2c1ncn2C(C)C [DS06]
- TR-FRET signal (CDK12–cyclin K and DDB1; compound concentration 4.68 nM): 0.1399 and 0.1627 and 0.1459 and 0.1432
- TR-FRET signal, individual replicate (CDK12–cyclin K and DDB1; compound concentration 4.68 nM): 0.1399 and 0.1627 and 0.1459 and 0.1432
- TR-FRET signal (CDK12–cyclin K and DDB1; compound concentration 21.6 nM): 0.173 and 0.1922 and 0.1723 and 0.1754
- TR-FRET signal, individual replicate (CDK12–cyclin K and DDB1; compound concentration 21.6 nM): 0.173 and 0.1922 and 0.1723 and 0.1754
- TR-FRET signal (CDK12–cyclin K and DDB1; compound concentration 36 nM): 0.2228 and 0.253 and 0.2242 and 0.2297
- TR-FRET signal, individual replicate (CDK12–cyclin K and DDB1; compound concentration 36 nM): 0.2228 and 0.253 and 0.2242 and 0.2297
- TR-FRET signal (CDK12–cyclin K and DDB1; [2]): 0.3087 and 0.3318 and 0.3304 and 0.3159
- TR-FRET signal, individual replicate (CDK12–cyclin K and DDB1; [2]): 0.3087 and 0.3318 and 0.3304 and 0.3159
- TR-FRET signal (CDK12–cyclin K and DDB1; [3]): 0.4597 and 0.4851 and 0.4992 and 0.3486
- TR-FRET signal, individual replicate (CDK12–cyclin K and DDB1; [3]): 0.4597 and 0.4851 and 0.4992 and 0.3486
- TR-FRET signal (CDK12–cyclin K and DDB1; [4]): 0.6961 and 0.632 and 0.7161 and 0.7436
- TR-FRET signal, individual replicate (CDK12–cyclin K and DDB1; [4]): 0.6961 and 0.632 and 0.7161 and 0.7436
- TR-FRET signal (CDK12–cyclin K and DDB1; [5]): 0.9481 and 0.8335 and 0.9996 and 0.9936
- TR-FRET signal, individual replicate (CDK12–cyclin K and DDB1; [5]): 0.9481 and 0.8335 and 0.9996 and 0.9936
- TR-FRET signal (CDK12–cyclin K and DDB1; [6]): 1.125 and 0.8632 and 1.358 and 1.356
- TR-FRET signal, individual replicate (CDK12–cyclin K and DDB1; [6]): 1.125 and 0.8632 and 1.358 and 1.356
- TR-FRET signal (CDK12–cyclin K and DDB1; compound concentration 2448 nM): 1.642 and 1.809 and 1.711 and 1.743
- TR-FRET signal, individual replicate (CDK12–cyclin K and DDB1; compound concentration 2448 nM): 1.642 and 1.809 and 1.711 and 1.743
- TR-FRET signal (CDK12–cyclin K and DDB1; [7]): 2.02 and 2.174 and 2.025 and 2.055
- TR-FRET signal, individual replicate (CDK12–cyclin K and DDB1; [7]): 2.02 and 2.174 and 2.025 and 2.055
- TR-FRET signal (CDK12–cyclin K and DDB1; [8]): 2.092 and 2.228 and 2.285 and 2.284
- TR-FRET signal, individual replicate (CDK12–cyclin K and DDB1; [8]): 2.092 and 2.228 and 2.285 and 2.284
- EC50 (CDK12–cyclin K and DDB1; [9]): 1160 nM
- EC50 (CDK12–cyclin K and DDB1; [10]): 1160 nM
- DC50 [1]: > 10000 nM
- EC50 (HEK293T cells): > 10000 nM
- Toxicity rescue (HEK293T cells): 0%

Structure (SMILES): CCc1ccc2nc(Nc3cc(Cc4ccccc4)nc(N[C@H]4CC[C@H](O)CC4)n3)sc2c1 [GSK2250665A, reference compound]
- TR-FRET signal at compound concentration 4.68 nM (CDK12–cyclin K and DDB1; compound concentration 4.68 nM, raw replicate titration data): 0.2092 and 0.2185
- TR-FRET signal at compound concentration 21.6 nM (CDK12–cyclin K and DDB1; compound concentration 21.6 nM, raw replicate titration data): 0.2003 and 0.2155
- TR-FRET signal at compound concentration 36 nM (CDK12–cyclin K and DDB1; compound concentration 36 nM, raw replicate titration data): 0.2049 and 0.2158
- TR-FRET signal at compound concentration 79.2001 nM (CDK12–cyclin K and DDB1; compound concentration 79.2001 nM, raw replicate titration data): 0.208 and 0.2231
- TR-FRET signal at compound concentration 158.4 nM (CDK12–cyclin K and DDB1; compound concentration 158.4 nM, raw replicate titration data): 0.2009 and 0.2135
- TR-FRET signal at compound concentration 309.6 nM (CDK12–cyclin K and DDB1; compound concentration 309.6 nM, raw replicate titration data): 0.2037 and 0.2058
- TR-FRET signal at compound concentration 626.401 nM (CDK12–cyclin K and DDB1; compound concentration 626.401 nM, raw replicate titration data): 0.2061 and 0.2177
- TR-FRET signal at compound concentration 1252.8 nM (CDK12–cyclin K and DDB1; compound concentration 1252.8 nM, raw replicate titration data): 0.2168 and 0.2226
- TR-FRET signal at compound concentration 2448 nM (CDK12–cyclin K and DDB1; compound concentration 2448 nM, raw replicate titration data): 0.212 and 0.232
- TR-FRET signal at compound concentration 9936.01 nM (CDK12–cyclin K and DDB1; compound concentration 9936.01 nM, raw replicate titration data): 0.2386 and 0.258
- TR-FRET signal at compound concentration 20016 nM (CDK12–cyclin K and DDB1; compound concentration 20016 nM, raw replicate titration data): 0.2819 and 0.2859
- DC50 [1]: > 10000 nM

Structure (SMILES): CC(C)(C)c1cnc(CSc2cnc(NC(=O)C3CCN(CC(=O)NCCOCCOCCOCCNc4cccc5c4C(=O)N(C4CCC(=O)NC4=O)C5=O)CC3)s2)o1 (centres unmarked) [THAL-SNS032]
- DC50 [1]: < 50 nM
- EC50 (HEK293T cells): 192 nM
- Toxicity rescue (HEK293T cells): 267%
